Earlier results as cited in patent US20110177168A1, “COMPOSITION” (SmithKline Beecham Limited, priority 2000, published 2011).

[1] = oral doses of conventional immediate release tablets

bioavailability [1]: 80% | tmax [1]: 0.5 to 1.5 h | elimination half-life (reported): 1.9 to 2.5 h
Compound: CC(=O)Nc1ccc(O)cc1 [paracetamol, N-acetyl-p-aminophenol]
